US6498156B2, “Diphenylazetidinone derivatives, process for their preparation, medicaments comprising these compounds and their use” (Aventis Pharma Deutschland GmbH, priority 2000, dated 2002)

Columns and labels:
[1] = test system: Cholesterol absorption (uptake of 14C-cholesterol by the liver); assay: Cholesterol absorption test: uptake of 14C-cholesterol by the liver after peroral test meal; format: in vivo, NMRI mice; settings: dose at which the uptake of 14C-cholesterol by the liver is halved (50%) vs control group, mouse
Description: Effect on Cholesterol Absorption +^3H-taurocholic Acid Excretion Using Fecal Excrement of Mice, Rats or Hamsters
NMRI mice, Wistar rats, or Golden Syrian hamsters (in groups of n=4-6) are kept in metabolic cages, where they are fed with a standard diet (Altromin, Lage (Lippe)). The afternoon prior to the administration of the radioactive tracers (^14C-cholesterol), the feed is removed and the animals are adapted to grates.
Additionally, the animals are labeled s.c. with ^3H-TCA (taurocholic acid) (for example 1 μCi/mouse up to 5 μCi/rat) 24 hours prior to the peroral administration of the test meal (^14C-cholesterol in Intralipid® 20, Pharmacia-Upjohn).
Cholesterol absorption test: 0.25 ml/mouse Intralipid ® 20 (Pharmacia-Upjohn) ((Spiked with 0.25 μCi of ^14C-cholesterol in 0.1 mg of cholesterol) are administered perorally by gavage.
Test substances were prepared separately in 0.5% methylcellulose (Sigma)/5% Solutol (BASF, Ludwigshafen) or a suitable vehicle.
The administration volume of the test substance is 0.5 ml/mouse. The test substance is administered immediately prior to the test meal (Intralipid labeled with ^14C-cholesterol) (cholesterol absorption test).
The feces are collected over a period of 24 h: fecal elimination of ^14C-cholesterol and ^3H-taurocholic acid (TCA) is determined after 24 hours.
The livers are removed and homogenized, and aliquots are incinerated in an oximate (Model 307, Packard) to determine the amount of ^14C-cholesterol which had been taken up/absorbed.
The amount of ^14C-cholesterol taken up by the liver is based on the administered dose. The ED50 values are interpolated from a dose-effect curve as the dose at of which the uptake of ^14C-cholesterol by the liver is halved (50%), based on a control group.

Caco-2 cell monolayers = assay: Bioabsorption in the Caco cell model; format: in vitro ADME; settings: estimated from Caco cell model data
Description: (§1) The bioabsorption of the compounds of the formula I was examined using the Caco cell model (A. R. Hilgers et al., Caco-2 cell monolayers as a model for drug transport across the intestinal mucosa, Pharm. Res. 1990, 7, 902).
(§2) From the measured data, it can be seen that the bioabsorption of the compounds of the formula I according to the invention is considerably lower than that of compounds described in the prior art (reference structure): […]

[2] = Bioabsorption in the Caco cell model; format: in vitro ADME; settings: human, Caco-2; Caco cell model; read-out: Apparent partition coefficient Papp (according to Lit. Hilgers)
Description: as §1, §2

melting point [°C]	SMILES	ED50 (liver) [1] [mg/mouse]	also measured
150	CCCCC1(CC)CS(=O)(=O)c2ccc(N(C)C)cc2C(c2cccc(NC(=O)CCCCC(=O)NCc3ccc(C4C(CCC(O)c5ccccc5)C(=O)N4c4ccc(F)cc4)cc3)c2)C1O (stereo not drawn) [II, N-[3-(3-Butyl-7-dimethylamino-3-ethyl-4-hydroxy-1,1-dioxo-2,3,4,5-tetrahydro-1H-benzo[b]thiepin-5-yl)phenyl]-N′-4-[1-(4-fluorophenyl)-3-(3-hydroxy-3-phenylpropyl)-4-oxoazetidin-2-yl]benzyl-hexanediamide]	0.01	
120	CCCCC1(CC)CS(=O)(=O)c2ccc(N(C)C)cc2C(c2cccc(NC(=O)COCCOCCOCC(=O)NCc3ccc(C4C(CCC(O)c5ccccc5)C(=O)N4c4ccc(F)cc4)cc3)c2)C1O (stereo not drawn) [VI, [2-(2-{[3-(3-Butyl-7-dimethylamino-3-ethyl-4-hydroxy-1,1-dioxo-2,3,4,5-tetrahydro-1H-benzo[b]thiepin-5-yl)-phenylcarbamoyl]methoxy}ethoxy)ethoxy]-[N-{4-[1-(4-fluorophenyl)-3-(3-hydroxy-3-phenylpropyl)-4-oxoazetidin-2-yl]benzyl}]acetamide]		
116 to 125	CCCCC1(CC)CS(=O)(=O)c2ccc(N(C)C)cc2C(c2cccc(NC(=O)COCCOCC(=O)NCc3ccc(N4C(=O)C(CCC(O)c5ccc(F)cc5)C4c4ccc(OC)cc4)cc3)c2)C1O (stereo not drawn) [XXX, 2-(2-{[3-(3-Butyl-7-dimethylamino-3-ethyl-4-hydroxy-1,1-dioxo-2,3,4,5-tetrahydro-1H-benzo[b]thiepin-5-yl)phenylcarbamoyl]methoxy}ethoxy)-N-{4-[3-[3-(4-fluorophenyl)-3-hydroxypropyl]-2-(4-methoxyphenyl)-4-oxoazetidin-1-yl]benzyl}acetamide]		

The next lines start with the molecule.

SMILES	melting point [°C]	ED50 (liver) [1] [mg/mouse]	also measured
CCCCC1(CC)CS(=O)(=O)c2ccc(N(C)C)cc2C(c2cccc(NC(=O)COCCOCC(=O)NCc3cccc(C4C(CCC(O)c5ccc(F)cc5)C(=O)N4c4ccc(F)cc4)c3)c2)C1O.O=C(O)C(F)(F)F (stereo not drawn) [VIII, (3-Butyl-3-ethyl-5-[3-(2-{2-[(3-{1-(4-fluorophenyl)-3-[3-(4-fluorophenyl)-3-hydroxypropyl]-4-oxoazetidin-2-yl}benzylcarbamoyl)methoxy]ethoxy}acetylamino)phenyl]-4-hydroxy-1,1-dioxo-2,3,4,5-tetrahydro-1H-benzo[b]thiepin-7-yl)dimethylammonium Trifluoroacetate]		0.003	
CCCCC1(CC)CS(=O)(=O)c2ccc(N(C)C)cc2C(c2cccc(NC(=O)CCCCCCCCCCC(=O)NCc3cccc(C4C(CCC(O)c5ccc(F)cc5)C(=O)N4c4ccc(F)cc4)c3)c2)[C@H]1O.O=C(O)C(F)(F)F (stereo in doubt) [Example XII, (3-Butyl-3-ethyl-5-{3-[11-(3-{1-(4-fluorophenyl)-3-[3-(4-fluorophenyl)-3-hydroxypropyl]-4-oxoazetidin-2-yl}benzylcarbamoyl)undecanoylamino]phenyl}-4-hydroxy-1,1-dioxo-2,3,4,5-tetrahydro-1H-benzo[b]thiepin-7-yl)dimethylammonium Trifluoro-acetate]			Estimated human bioabsorption (Caco-2 cell monolayers): <1%; Papp [2]: 0.00367 ×10⁻⁶ cm/s
CCCCC1(CC)CS(=O)(=O)c2ccc(N(C)C)cc2C(c2cccc(NC(=O)CCCCC(=O)NCc3ccc(C4C(CCC(O)c5ccc(F)cc5)C(=O)N4c4ccc(F)cc4)cc3)c2)C1O (stereo not drawn) [III, N-[3-(3-Butyl-7-dimethylamino-3-ethyl-4-hydroxy-1,1-dioxo-2,3,4,5-tetrahydro-1H-benzo[b]thiepin-5-yl)phenyl]-N′-4-{1-(4-fluorophenyl)-3-[3-(4-fluorophenyl)-3-hydroxypropyl]-4-oxo-azetidin-2-yl}benzyl-hexanediamide]		0.03	
CCCCC1(CC)CS(=O)(=O)c2ccc(N(C)C)cc2C(c2cccc(NC(=O)CCCCCCCNCc3ccc(C4C(CCC(O)c5ccc(F)cc5)C(=O)N4c4ccc(F)cc4)cc3)c2)C1O.O=C(O)C(F)(F)F (stereo not drawn) [XXV]		0.01	
O=C1[C@H](CC[C@H](O)c2ccc(F)cc2)[C@@H](c2ccc(O)cc2)N1c1ccc(F)cc1 [Reference structure, Ezetimibe, reference compound]			Estimated human bioabsorption (Caco-2 cell monolayers): 100%; Papp [2]: 4.88 ×10⁻⁶ cm/s
CCCCC1(CC)CS(=O)(=O)c2ccc(N(C)C)cc2C(c2cccc(NC(=O)COCCOCCOCC(=O)NCc3ccc(N4C(=O)C(CCC(O)c5ccc(F)cc5)C4c4ccc(OC)cc4)cc3)c2)C1O (stereo not drawn) [XXXI, N-[3-(3-Butyl-7-dimethylamino-3-ethyl-4-hydroxy-1,1-dioxo-2,3,4,5-tetrahydro-1H-benzo[b]thiepin-5-yl)phenyl]-2-{2-[2-({4-[3-[3-(4-fluorophenyl)-3-hydroxypropyl]-2-(4-methoxyphenyl)-4-oxoazetidin-1-yl]benzylcarbamoyl}methoxy)ethoxy]ethoxy}acetamide]		0.1	
